The text below walks through data of article PMC2760454 (Biochemistry, 2008).

Read-outs that look alike come from different tables or passages of the source.

Assay [1] addresses T1, homoisocitrate dehydrogenase (HIcDH) (Saccharomyces cerevisiae, UniProt P40495). As to conditions: in the presence of K+; cited from earlier work.
The target in assay [2] is T1, homoisocitrate dehydrogenase (HIcDH). Kind of assay: HIcDH initial velocity studies. As to conditions: for Kact (activation constant): varied salt, MgHIc 4.2 µM, NAD 0.5 mM, fit to eq. 1. The assay is classed as biochemical.
The target is the same in assay [3]. Nature of the assay: pH dependence of HIcDH kinetic parameters and of the activation constant of K+. In kind it is biochemical.
The target is the same in assay [4]. Nature of the assay: Product and dead-end inhibition studies of HIcDH in the absence of K+. The assay is classed as biochemical. As to conditions: NAD fixed at its Km.

T1 sequence (P40495 23-371): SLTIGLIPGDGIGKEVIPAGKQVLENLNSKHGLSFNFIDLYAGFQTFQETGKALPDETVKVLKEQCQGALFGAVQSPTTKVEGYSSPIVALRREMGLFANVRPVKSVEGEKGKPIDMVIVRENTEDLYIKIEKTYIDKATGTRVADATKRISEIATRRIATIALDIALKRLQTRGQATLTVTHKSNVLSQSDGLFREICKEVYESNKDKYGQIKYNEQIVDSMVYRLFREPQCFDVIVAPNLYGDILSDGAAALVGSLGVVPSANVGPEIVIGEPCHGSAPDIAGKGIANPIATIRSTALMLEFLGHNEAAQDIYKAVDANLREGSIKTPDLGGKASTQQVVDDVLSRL

Broadly, the Ki is a dissociation constant, usually derived from enzyme kinetics or from competition with a known ligand. On to `NC(=O)C1=CN([C@@H]2O[C@H](COP(=O)(O)OP(=O)(O)OC[C@H]3O[C@@H](n4cnc5c(N)ncnc54)[C@H](O)[C@@H]3O)[C@@H](O)[C@H]2O)C=CC1` [NADH, reduced nicotinamide adenine dinucleotide], for which the Ki in assay [1] was 0.3 mM.

Regarding `[K+]` [K^+, Potassium], in assay [2] (read-out: KiK, NAD varied at fixed KOAc, MgHIc saturating (10Km), fit to eq. 5), the Kd amounted to 43 ± 19 mM. In assay [3] (KOAc varied, NAD 0.4 mM, MgHIc 10Km, average of data above pH 7), the “appKact, pH independent value” is given as “about 13 mM”.

For `NC(=O)c1ccc[n+]([C@@H]2O[C@H](COP(=O)([O-])OP(=O)(O)OC[C@H]3O[C@@H](n4cnc5c(N)ncnc54)[C@H](O)[C@@H]3O)[C@@H](O)[C@H]2O)c1` [NAD, nicotinamide adenine dinucleotide], the Kd in assay [2] came to 77 ± 57 mM. In addition, the KNAD came to 9 ± 3 mM in assay [2] (KCl 0 mM); 1.6 ± 0.2 mM in assay [2] (KCl 5 mM); 1.3 ± 0.1 mM in assay [2] (KCl 15 mM); 0.8 ± 0.1 mM in assay [2] (KCl 150 mM); 0.9 ± 0.2 mM in assay [2] (KCl 350 mM); 9 ± 3 mM in assay [2] (Minus KOAc, pH 8.0, 25°C). Further, the KNAD in assay [2] (NAD varied at fixed KOAc, MgHIc saturating (10Km), fit to eq. 5) stood at 0.3 ± 0.1 mM; in assay [2] (Plus KOAc, pH 8.0, 25°C), 0.3 ± 0.1 mM. Moreover, the V1/KNADEt result in assay [2] (Minus KOAc, pH 8.0, 25°C) is on record as “(5 ± 1) × 10^2 M^−1·s^−1”; in assay [2] (Plus KOAc, pH 8.0, 25°C) it was “(4 ± 1) × 10^4 M^−1·s^−1”. In assay [3] (absence of K+, pH 8.5 to 9.7), the “V/KNADEt, constant value at high pH” value is “about 123 ± 3 M^−1s^−1”.

Take `[Cl-].[K+]` [KCl]: in assay [2] (200 mM KCl versus absence, reactants fixed at their Km values), the “fold increase in initial rate” value is 13 fold. In assay [2], the “Kact (activation constant)” value is reported as 55 ± 20 mM.

In the case of `C[N+](C)(C)C.[Cl-]` [tetramethylammonium chloride, reference compound], the “initial rate as % of that without KCl” value in assay [2] (200 mM, fixed concentrations of MgHIc and NAD) is reported as “about 36%”.

Consider `CC(=O)[O-].[K+]` [KOAc, Potassium acetate], for which the “Ki fold higher than with KCl” value in assay [2] (KOAc versus KCl) is given as 5 fold. Also, the “Kact (activation constant)” value in assay [2] was 26 ± 4 mM.

For `O=C(O)CCC=C(C(=O)O)C(O)C(=O)O` (stereo not drawn) [CPM, 3-Carboxypropylidenemalate], in assay [4], the “inhibition constant, competitive versus MgHIc” value is on record as 65 ± 7 ∝M.
